Results: paper PMC6272155, “Plasmin Regulation through Allosteric, Sulfated, Small Molecules” (Molecules, 2015)
Entries after “also recorded” stand apart in the source; their conditions may differ. Read-outs that look alike come from different tables or passages of the source.

How the values were obtained:
Format in all cases: biochemical
human Lys-plasmin = target: T1, human Lys-plasmin (Homo sapiens, UniProt P00747); experiment: Direct inhibition of human Lys-plasmin, chromogenic substrate (Spectrozyme PL) hydrolysis assay; details: for inhibition at 400 µM: 400 μM inhibitor, n ≥ 2, read-out: plasmin inhibition in initial screening; for IC50: human plasmin 20 nM, 50 mM Tris-HCl pH 7.4, 150 mM NaCl, 37 °C, Spectrozyme PL; for diminished potency relative to 32: 13-atom and 14-atom linkers vs 12-atom linker of 32; for decrease in inhibition potency relative to 31 and 32, respectively: tetrasulfated flavonoid replaced by para-sulfated quinazolinone
T1 construct: purchased Haematologic Technologies (Essex Junction, VT, USA)
T1 sequence (P00747 581-810 limits assumed): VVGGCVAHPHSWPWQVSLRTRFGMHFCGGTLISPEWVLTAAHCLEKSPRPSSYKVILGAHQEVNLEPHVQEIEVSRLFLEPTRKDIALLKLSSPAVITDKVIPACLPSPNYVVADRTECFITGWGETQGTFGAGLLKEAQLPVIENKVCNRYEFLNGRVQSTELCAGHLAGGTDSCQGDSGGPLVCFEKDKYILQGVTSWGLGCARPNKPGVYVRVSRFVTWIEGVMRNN
T1 sequence (P00747 97-580 partner limits assumed): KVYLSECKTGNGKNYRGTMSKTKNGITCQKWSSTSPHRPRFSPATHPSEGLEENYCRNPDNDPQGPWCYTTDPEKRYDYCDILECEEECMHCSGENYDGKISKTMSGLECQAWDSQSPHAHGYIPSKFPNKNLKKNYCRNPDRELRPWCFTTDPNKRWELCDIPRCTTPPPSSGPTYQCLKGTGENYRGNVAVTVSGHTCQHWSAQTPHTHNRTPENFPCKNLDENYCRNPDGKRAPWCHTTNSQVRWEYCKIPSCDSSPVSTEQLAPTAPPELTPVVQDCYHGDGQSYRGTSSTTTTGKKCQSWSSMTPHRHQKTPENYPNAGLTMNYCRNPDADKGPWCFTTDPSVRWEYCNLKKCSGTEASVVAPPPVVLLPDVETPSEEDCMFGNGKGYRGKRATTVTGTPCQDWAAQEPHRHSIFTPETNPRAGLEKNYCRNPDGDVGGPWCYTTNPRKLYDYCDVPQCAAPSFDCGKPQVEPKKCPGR
Experimental: Important to emphasize here that the potency of NSGM-based inhibitors was evaluated by measuring their IC50's (X-axis), whereas the efficacy was assessed by measuring the overall change in residual plasmin activity (%) (ΔY = YM − Y0) (Y-axis).
Direct inhibition of human Lys-plasmin was measured using a chromogenic substrate hydrolysis assay on a microplate reader (FlexStation III, Molecular Devices, Sunnyvale, CA, USA), as reported earlier. Briefly, to each well of a 96-well microplate containing 85 µL of 50 mM Tris-HCl buffer, pH 7.4, containing 150 mM NaCl, 0.1% PEG8000, and 0.02% Tween80 at 37 °C was added 5 µL potential NSGM-based inhibitor (20–100 mM aqueous solution) (or vehicle alone) and 5 µL enzyme. The final concentration of the enzyme was 20 nM. After 5 min incubation, 5 µL of 1 mM Spectrozyme PL was rapidly added and the residual enzyme activity was measured from the initial rate of increase in A405. Relative residual enzyme activity (Y) as a function of the concentration of sulfated molecule was fitted using logistic equation 1 to obtain the potency (IC50), efficacy (ΔY) and Hill slope (HS) of inhibition. In this equation, YM and Y0 are the maximal and minimal values of Y: (1) Y = Y0+YM−Y0/1+10^(log[Inhibitor]0 − logIC50) ×HS […]
In this equation, Y is the ratio of residual plasmin activity in the presence of inhibitor to that in its absence (fractional residual activity). YM and Y0 are the maximum and minimum possible values of the fractional residual proteinase activity. The difference between these two values is used to evaluate the inhibitor’s efficacy to reduce the residual enzyme activity under the assay condition.
Direct inhibition of human plasmin by sulfated small molecules. Direct inhibition of plasmin was measured using a chromogenic substrate hydrolysis assay on a microplate reader (FlexStation III, Molecular Devices), as reported earlier. Briefly, to each well of a 96-well microplate containing […]
Tween80 at 37 °C was added 5 µL potential inhibitor (or vehicle alone) and 5 µL enzyme. The final concentration of the enzyme was 20 nM. After 5 min incubation, 5 µL of 1 mM Spectrozyme PL was rapidly added and the residual enzyme activity was measured from the initial rate of increase in A405.
Relative residual enzyme activity (Y, activity in the presence of inhibitor to that in its absence) as a function of the concentration of SPGG derivative was fitted using logistic Equation (1) to obtain the potency (IC50), efficacy (ΔY) and Hill slope (HS) of inhibition. In this equation, YM and Y0 are the maximal and minimal values of Y.

factor Xa = factor Xa (Homo sapiens, UniProt P00742); experiment: Direct inhibition of factor Xa, chromogenic substrate (Spectrozyme FXa) hydrolysis assay; details: for IC50: pH 7.4, 37 °C, read-out: IC50 against factor Xa
factor Xa, sequence (P00742 235-488 limits assumed): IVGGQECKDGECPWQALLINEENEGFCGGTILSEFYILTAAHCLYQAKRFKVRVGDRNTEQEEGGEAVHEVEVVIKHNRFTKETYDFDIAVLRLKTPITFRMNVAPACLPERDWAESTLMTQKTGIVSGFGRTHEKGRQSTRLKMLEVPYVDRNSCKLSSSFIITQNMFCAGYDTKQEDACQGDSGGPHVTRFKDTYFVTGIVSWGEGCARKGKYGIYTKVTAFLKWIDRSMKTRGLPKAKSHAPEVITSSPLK
factor Xa, sequence (P00742 41-179 partner limits assumed): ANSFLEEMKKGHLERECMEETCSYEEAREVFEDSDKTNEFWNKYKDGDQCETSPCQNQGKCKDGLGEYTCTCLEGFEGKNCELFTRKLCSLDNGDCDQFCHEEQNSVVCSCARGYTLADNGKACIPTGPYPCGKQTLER
Experimental: (§1) The rationale behind targeting an allosteric site on plasmin was to achieve inhibition specificity over the closely related serine proteases. In contrast to active sites, allosteric sites are not as highly conserved and therefore present a powerful opportunity for discovering a selective modulator of enzyme function. […] Using appropriate small peptide-based chromogenic substrates, the fractional residual thrombin and factor Xa activities were measured under the physiological condition of pH 7.4 and 37 °C.
(§2) Briefly, to each well of a 96-well microplate containing 185 μL of 20–50 mM Tris-HCl buffer, pH 7.4, containing 100–150 mM NaCl, 0.1% PEG8000 and 0.02% Tween80 at either 25 °C (thrombin) or 37 °C (factor Xa) was added 5 μL of 10–20 mM inhibitor (or vehicle) and 5 μL of the enzyme. The final concentrations of the enzymes were 6 nM (thrombin) and 1.09 nM (factor Xa). After 10 min incubation, 5 μL 1.0 mM Spectrozyme TH or 2.5 mM Spectrozyme FXa, was rapidly added and the residual enzyme activity was measured from the initial rate of increase in A405. Relative residual enzyme activity (Y, activity in the presence of inhibitor to that in its absence) as a function of the concentration of inhibitor was measured.

thrombin = thrombin (Homo sapiens, UniProt P00734); experiment: Direct inhibition of thrombin, chromogenic substrate (Spectrozyme TH) hydrolysis assay; details: pH 7.4, 37 °C; read-out: IC50 against thrombin
Experimental: as §1, §2

human plasmin = target: T2, human plasmin (Homo sapiens, UniProt P00747); experiment: Michaelis-Menten kinetics of Spectrozyme PL hydrolysis by human plasmin in presence of inhibitor
T2 construct: purchased Haematologic Technologies (Essex Junction, VT, USA)
T2 sequence (P00747 581-810 limits assumed): as the sequence (P00747 581-810 limits assumed) above
T2 sequence (P00747 97-580 partner limits assumed): as the sequence (P00747 97-580 partner limits assumed) above
Experimental: The initial rate of Spectrozyme PL hydrolysis by human plasmin (20 nM) was monitored from the linear increase in absorbance at 405 nm corresponding to less than 10% consumption of the substrate. […] The data were fitted by Michaelis-Menten Equation (2) to determine KM,app and VMAX: (2) V= VMAX [S]/KM+ [S] […]
Michaelis-Menten kinetics of Spectrozyme PL hydrolysis by plasmin in the presence of […]
The initial rate of Spectrozyme PL hydrolysis by human plasmin (20 nM) was monitored from the linear increase in absorbance at 405 nm corresponding to less than 10% consumption of the substrate. The initial rate was measured as a function of various concentrations of the substrate (0–400 μM) […]
50 mM Tris-HCl buffer, pH 7.4, 150 mM NaCl at 37 °C. The data were fitted by Michaelis-Menten Equation (2) to determine KM,app and VMAX. […]

[1] = pH 7.4, read-out: ΔY% (efficacy, YM − Y0), logistic fit, pH 7.4, 37 °C
[2] = pH 7.4, logistic fit, pH 7.4, 37 °C, read-out: ΔY% (efficacy, YM − Y0)
[3] = logistic fit, pH 7.4, 37 °C, read-out: ΔY% (efficacy, YM − Y0)

SMILES | IC50 (human Lys-plasmin) | HS (Hill slope) (human Lys-plasmin; logistic fit, pH 7.4, 37 °C) | Emax (human Lys-plasmin; [3]) | further results
O=S(=O)(O)OC[C@H]1O[C@@](COS(=O)(=O)O)(O[C@H]2O[C@H](COS(=O)(=O)O)[C@@H](OS(=O)(=O)O)[C@H](OS(=O)(=O)O)[C@H]2OS(=O)(=O)O)[C@@H](OS(=O)(=O)O)[C@@H]1OS(=O)(=O)O [compound 17, sucrose octasulfate, reference compound] |  |  |  | inhibition at 400 µM (human Lys-plasmin; pH 7.4, 37 °C): ≤ 70%
O=c1c(OS(=O)(=O)O)c(-c2ccc(OS(=O)(=O)O)c(OS(=O)(=O)O)c2)oc2cc(OS(=O)(=O)O)cc(OCc3cn(CCCCCCCn4c(-c5ccc(OS(=O)(=O)O)cc5)nc5ccccc5c4=O)nn3)c12 [compound 31, 3-(8-(4-((2-(3,4-O,O-Disulfonato-phenyl)-3,7-O,O-disulfonato-4-oxo-4H-chromen-5-yloxy)methyl)-1H-1,2,3-triazol-1-yl)heptyl)-2-(4-O-sulfonato-phenyl)quinazolin-4(3H)-one] | 56 ± 2 µM | 3.2 ± 0.8 |  | ΔY% (efficacy, YM − Y0) (human Lys-plasmin; logistic fit, pH 7.4, 37 °C): 87 ± 4%; Emax (human Lys-plasmin; [1]): 87%; selectivity index for plasmin over factor Xa (factor Xa): about 5 fold; IC50 (factor Xa): > 250 µM; IC50 (thrombin): > 500 µM
O=c1c(OS(=O)(=O)O)c(-c2ccc(OS(=O)(=O)O)c(OS(=O)(=O)O)c2)oc2cc(OS(=O)(=O)O)cc(OCc3cn(CCCCCCCCn4c(-c5ccc(OS(=O)(=O)O)cc5)nc5ccccc5c4=O)nn3)c12 [compound 32, 3-(8-(4-((2-(3,4-O,O-Disulfonato-phenyl)-3,7-O,O-disulfonato-4-oxo-4H-chromen-5-yloxy)methyl)-1H-1,2,3-triazol-1-yl)octyl)-2-(4-O-sulfonato-phenyl)quinazolin-4(3H)-one] | 45 ± 2 µM | 2.3 ± 0.7 |  | Emax (human Lys-plasmin; [1]): 105%; selectivity index for plasmin over factor Xa (factor Xa): about 5 fold; IC50 (factor Xa): > 250 µM; IC50 (thrombin): > 500 µM; mechanism of plasmin inhibition (human plasmin; Michaelis-Menten kinetics, pH 7.4, 37 °C): noncompetitive inhibition; also recorded: allosteric inhibitor; decrease in VMAX (human plasmin; inhibitor 0 to 250 μM): 5.5 fold; VMAX of Spectrozyme PL hydrolysis (human plasmin; inhibitor 1 μM): 65.8 ± 2.1 mAU/min; VMAX of Spectrozyme PL hydrolysis (human plasmin; inhibitor 10 μM): 56.4 ± 2.3 mAU/min; VMAX of Spectrozyme PL hydrolysis (human plasmin; inhibitor 50 μM): 41.4 ± 1.6 mAU/min; VMAX of Spectrozyme PL hydrolysis (human plasmin; inhibitor 150 μM): 20.7 ± 1.1 mAU/min; VMAX of Spectrozyme PL hydrolysis (human plasmin; inhibitor 250 μM): 12.5 ± 1.3 mAU/min
O=c1c(OS(=O)(=O)O)c(-c2ccc(OS(=O)(=O)O)c(OS(=O)(=O)O)c2)oc2cc(OS(=O)(=O)O)cc(OCc3cn(CCCCCCCCCn4c(-c5ccc(OS(=O)(=O)O)cc5)nc5ccccc5c4=O)nn3)c12 [compound 33] | 128 ± 8 µM | 1.8 ± 0.4 |  | diminished potency relative to 32 (human Lys-plasmin): ~ 3 fold; Emax (human Lys-plasmin; [1]): 89 ± 7%
O=c1c(OS(=O)(=O)O)c(-c2ccc(OS(=O)(=O)O)c(OS(=O)(=O)O)c2)oc2cc(OS(=O)(=O)O)cc(OCc3cn(CCCCCCCCCCn4c(-c5ccc(OS(=O)(=O)O)cc5)nc5ccccc5c4=O)nn3)c12 [compound 34] | 130 ± 6 µM | 3.9 ± 1.0 |  | diminished potency relative to 32 (human Lys-plasmin): ~ 3 fold; Emax (human Lys-plasmin; [1]): 83 ± 5%
O=c1c2ccccc2nc(-c2ccc(OS(=O)(=O)O)cc2)n1Cc1cn(CCn2cc(Cn3c(-c4ccc(OS(=O)(=O)O)cc4)nc4ccccc4c3=O)nn2)nn1 [compound 41] | 125 ± 9 µM | 4.0 ± 1.8 |  | ΔY% (efficacy, YM − Y0) (human Lys-plasmin; logistic fit, pH 7.4, 37 °C): 54 ± 5%; Emax (human Lys-plasmin; [2]): 54%
O=c1c2ccccc2nc(-c2ccc(OS(=O)(=O)O)cc2)n1CCCCCCCn1cc(Cn2c(-c3ccc(OS(=O)(=O)O)cc3)nc3ccccc3c2=O)nn1 [compound 42] | 161 ± 24 µM | 1.0 ± 0.2 | 92 ± 4% | decrease in inhibition potency relative to 31 and 32, respectively (human Lys-plasmin): 3–4 fold
O=c1c2ccccc2nc(-c2ccc(OS(=O)(=O)O)cc2)n1CCCCCCCCn1cc(Cn2c(-c3ccc(OS(=O)(=O)O)cc3)nc3ccccc3c2=O)nn1 [compound 43] | 183 ± 43 µM | 1.0 ± 0.3 | 94 ± 21% | decrease in inhibition potency relative to 31 and 32, respectively (human Lys-plasmin): 3–4 fold
O=c1c2ccccc2nc(-c2ccc(OS(=O)(=O)O)cc2)n1CCCCCCCCCn1cc(Cn2c(-c3ccc(OS(=O)(=O)O)cc3)nc3ccccc3c2=O)nn1 [compound 44] | 137 ± 11 µM | 1.0 ± 0.2 | 102 ± 9% | 
O=c1c2ccccc2nc(-c2ccc(OS(=O)(=O)O)cc2)n1CCCCCCCCCCn1cc(Cn2c(-c3ccc(OS(=O)(=O)O)cc3)nc3ccccc3c2=O)nn1 [compound 45] | 98 ± 9 µM | 1.7 ± 0.6 | 94 ± 6% | 
O=c1c2ccccc2nc(-c2ccc(OS(=O)(=O)O)cc2)n1CCCCCCCCCCCn1cc(Cn2c(-c3ccc(OS(=O)(=O)O)cc3)nc3ccccc3c2=O)nn1 [compound 46] | 111 ± 7 µM | 2.4 ± 0.4 | 95 ± 2% | 
O=c1c2ccccc2nc(-c2ccc(OS(=O)(=O)O)cc2)n1CCCCCCCCCCCCn1cc(Cn2c(-c3ccc(OS(=O)(=O)O)cc3)nc3ccccc3c2=O)nn1 [compound 47] | 89 ± 7 µM | 1.9 ± 0.6 | 98 ± 7% | 
O=c1c(OS(=O)(=O)O)c(-c2ccc(OS(=O)(=O)O)c(OS(=O)(=O)O)c2)oc2cc(OS(=O)(=O)O)cc(OCCOc3cc(OS(=O)(=O)O)cc4oc(-c5ccc(OS(=O)(=O)O)c(OS(=O)(=O)O)c5)c(OS(=O)(=O)O)c(=O)c34)c12 [compound 50] | 185 ± 68 µM | 1.4 ± 0.2 |  | loss in potency relative to 4-atom linker flavonoid homodimers (52, 54) (human Lys-plasmin): 2 fold; inhibition at 400 µM (human Lys-plasmin; pH 7.4, 37 °C): > 90%; ΔY% (efficacy, YM − Y0) (human Lys-plasmin; logistic fit, pH 7.4, 37 °C): 38 ± 15%; Emax (human Lys-plasmin; [2]): 38%
O=c1c(OS(=O)(=O)O)c(-c2ccc(OS(=O)(=O)O)c(OS(=O)(=O)O)c2)oc2cc(OS(=O)(=O)O)cc(OCCCOc3cc(OS(=O)(=O)O)cc4oc(-c5ccc(OS(=O)(=O)O)c(OS(=O)(=O)O)c5)c(OS(=O)(=O)O)c(=O)c34)c12 [compound 51] | ~2830 µM |  |  | loss in potency relative to 4-atom linker flavonoid homodimers (52, 54) (human Lys-plasmin): 37 fold
O=c1c(OS(=O)(=O)O)c(-c2ccc(OS(=O)(=O)O)c(OS(=O)(=O)O)c2)oc2cc(OS(=O)(=O)O)cc(OCCCCCOc3cc(OS(=O)(=O)O)cc4oc(-c5ccc(OS(=O)(=O)O)c(OS(=O)(=O)O)c5)c(OS(=O)(=O)O)c(=O)c34)c12 [compound 53] | 209 ± 25 µM | 0.6 ± 0.1 |  | loss in potency relative to 4-atom linker flavonoid homodimers (52, 54) (human Lys-plasmin): 3 fold; inhibition at 400 µM (human Lys-plasmin; pH 7.4, 37 °C): > 90%; Emax (human Lys-plasmin; [2]): 105 ± 8%
